The supplement of paper PMC10307832

Key:
Assay in all cases: relative viability (nuclei count vs DMSO), 5 days (fraction); higher = more cells survive
[1] = tested on: A-427
Outline: (§1)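 The day after seeding in 1536-well plates, lung cancer cell lines were treated by pin tool with a single drug, or with a fixed anchor-drug dose together with five library-drug doses (not always all listed) in √10 steps. After 5 days, a combined fix-and-stain solution (final 0.05% Triton X-100, 1% formaldehyde, 1 ug/ml Hoechst) was added. Nuclei counted on 4× images gave relative viability as treated counts over vehicle counts, reported as the median of duplicate plates.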

[2] = tested on: ABC-1
Outline: as §1

[3] = tested on: COR-L23
Outline: as §1

[4] = tested on: EMC-BAC-2
Outline: as §1

[5] = tested on: HARA
Outline: as §1

[6] = tested on: HOP-62
Outline: as §1

[7] = tested on: LK-2
Outline: as §1

[8] = tested on: LU99A
Outline: as §1

[9] = tested on: LXF-289
Outline: as §1

[10] = tested on: NCI-H1792
Outline: as §1

[11] = tested on: NCI-H1793
Outline: as §1

[12] = tested on: NCI-H1944
Outline: as §1

[13] = tested on: NCI-H1993
Outline: as §1

[14] = tested on: NCI-H2009
Outline: as §1

[15] = tested on: NCI-H2228
Outline: as §1

[16] = tested on: NCI-H3122
Outline: as §1

[17] = tested on: NCI-H596
Outline: as §1

[18] = tested on: NCI-H727
Outline: as §1

[19] = tested on: PC-3 [JPC-3]
Outline: as §1

[20] = tested on: SK-LU-1
Outline: as §1

[21] = tested on: SK-MES-1
Outline: as §1

[22] = tested on: SW 1573
Outline: as §1

SMILES: COc1cc(N2CCC(C(N)=O)CC2)ccc1Nc1nc(N)c(Cl)c(Nc2ccccc2S(=O)(=O)C(C)C)n1 [HG-5-88-01] + C[C@]1(O)C[C@@H](c2nc(-c3ccc4ccc(-c5ccccc5)nc4c3)c3c(N)nccn32)C1 [Linsitinib] (partner 1 µM)
- relative viability ([1]; first compound 0.04 µM): 1.07
- relative viability ([1]; first compound 0.1265 µM): 1.11
- relative viability ([1]; first compound 0.4 µM): 1.15
- relative viability ([1]; first compound 1.265 µM): 1.14
- relative viability ([1]; first compound 4 µM): 1.09
- relative viability ([2]; first compound 0.04 µM): 0.679
- relative viability ([2]; first compound 0.1265 µM): 0.894
- relative viability ([2]; first compound 0.4 µM): 0.815
- relative viability ([2]; first compound 1.265 µM): 0.668
- relative viability ([2]; first compound 4 µM): 1.01
- relative viability ([3]; first compound 0.04 µM): 0.885
- relative viability ([3]; first compound 0.1265 µM): 0.888
- relative viability ([3]; first compound 0.4 µM): 0.872
- relative viability ([3]; first compound 1.265 µM): 0.738
- relative viability ([3]; first compound 4 µM): 0.757
- relative viability ([4]; first compound 0.04 µM): 0.79
- relative viability ([4]; first compound 0.1265 µM): 0.849
- relative viability ([4]; first compound 0.4 µM): 0.771
- relative viability ([4]; first compound 1.265 µM): 0.758
- relative viability ([4]; first compound 4 µM): 0.851
- relative viability ([5]; first compound 0.04 µM): 0.946
- relative viability ([5]; first compound 0.1265 µM): 0.916
- relative viability ([5]; first compound 0.4 µM): 0.909
- relative viability ([5]; first compound 1.265 µM): 1
- relative viability ([5]; first compound 4 µM): 0.92
- relative viability ([6]; first compound 0.04 µM): 0.978
- relative viability ([6]; first compound 0.1265 µM): 1.04
- relative viability ([6]; first compound 0.4 µM): 0.821
- relative viability ([6]; first compound 1.265 µM): 0.938
- relative viability ([6]; first compound 4 µM): 1.23
- relative viability ([7]; first compound 0.04 µM): 0.591
- relative viability ([7]; first compound 0.1265 µM): 0.519
- relative viability ([7]; first compound 0.4 µM): 0.634
- relative viability ([7]; first compound 4 µM): 0.768
- relative viability ([8]; first compound 0.04 µM): 0.552
- relative viability ([8]; first compound 0.1265 µM): 0.535
- relative viability ([8]; first compound 0.4 µM): 0.531
- relative viability ([8]; first compound 1.265 µM): 0.578
- relative viability ([8]; first compound 4 µM): 0.589
- relative viability ([9]; first compound 0.04 µM): 0.94
- relative viability ([9]; first compound 0.1265 µM): 1
- relative viability ([9]; first compound 0.4 µM): 0.961
- relative viability ([9]; first compound 1.265 µM): 0.973
- relative viability ([9]; first compound 4 µM): 1.04
- relative viability ([10]; first compound 0.04 µM): 0.711
- relative viability ([10]; first compound 0.1265 µM): 0.513
- relative viability ([10]; first compound 0.4 µM): 0.515
- relative viability ([10]; first compound 1.265 µM): 0.561
- relative viability ([10]; first compound 4 µM): 0.818
- relative viability ([11]; first compound 0.1265 µM): 1.05
- relative viability ([11]; first compound 0.4 µM): 0.856
- relative viability ([11]; first compound 1.265 µM): 0.809
- relative viability ([11]; first compound 4 µM): 1.18
- relative viability ([12]; first compound 0.04 µM): 1.14
- relative viability ([12]; first compound 0.1265 µM): 1.19
- relative viability ([12]; first compound 0.4 µM): 1.19
- relative viability ([12]; first compound 1.265 µM): 0.803
- relative viability ([12]; first compound 4 µM): 1.31
- relative viability ([13]; first compound 0.04 µM): 0.807
- relative viability ([13]; first compound 0.1265 µM): 0.697
- relative viability ([13]; first compound 0.4 µM): 0.732
- relative viability ([13]; first compound 1.265 µM): 0.61
- relative viability ([13]; first compound 4 µM): 0.722
- relative viability ([14]; first compound 0.04 µM): 1.23
- relative viability ([14]; first compound 0.1265 µM): 1.14
- relative viability ([14]; first compound 0.4 µM): 1.23
- relative viability ([14]; first compound 1.265 µM): 1.12
- relative viability ([14]; first compound 4 µM): 1.17
- relative viability ([15]; first compound 0.04 µM): 0.234
- relative viability ([15]; first compound 0.1265 µM): 0.382
- relative viability ([15]; first compound 0.4 µM): 0.389
- relative viability ([15]; first compound 1.265 µM): 0.41
- relative viability ([15]; first compound 4 µM): 0.315
- relative viability ([16]; first compound 0.04 µM): 0.914
- relative viability ([16]; first compound 0.1265 µM): 0.379
- relative viability ([16]; first compound 0.4 µM): 0.197
- relative viability ([16]; first compound 1.265 µM): 0.2
- relative viability ([16]; first compound 4 µM): 0.226
- relative viability ([17]; first compound 0.04 µM): 1
- relative viability ([17]; first compound 0.1265 µM): 1.12
- relative viability ([17]; first compound 0.4 µM): 1.2
- relative viability ([17]; first compound 1.265 µM): 1.13
- relative viability ([17]; first compound 4 µM): 1.17
- relative viability ([18]; first compound 0.04 µM): 0.337
- relative viability ([18]; first compound 0.1265 µM): 0.336
- relative viability ([18]; first compound 0.4 µM): 0.179
- relative viability ([18]; first compound 1.265 µM): 0.221
- relative viability ([18]; first compound 4 µM): 0.324
- relative viability ([19]; first compound 0.04 µM): 0.964
- relative viability ([19]; first compound 0.1265 µM): 0.956
- relative viability ([19]; first compound 0.4 µM): 0.947
- relative viability ([19]; first compound 1.265 µM): 0.944
- relative viability ([19]; first compound 4 µM): 0.83
- relative viability ([20]; first compound 0.04 µM): 1.02
- relative viability ([20]; first compound 0.1265 µM): 1
- relative viability ([20]; first compound 0.4 µM): 1.09
- relative viability ([20]; first compound 1.265 µM): 1.21
- relative viability ([20]; first compound 4 µM): 0.996
- relative viability ([21]; first compound 0.04 µM): 1.02
- relative viability ([21]; first compound 0.1265 µM): 1.03
- relative viability ([21]; first compound 0.4 µM): 1.08
- relative viability ([21]; first compound 1.265 µM): 1.04
- relative viability ([21]; first compound 4 µM): 1.14
- relative viability ([22]; first compound 0.04 µM): 0.796
- relative viability ([22]; first compound 0.1265 µM): 0.961
- relative viability ([22]; first compound 0.4 µM): 0.855
- relative viability ([22]; first compound 1.265 µM): 0.704
- relative viability ([22]; first compound 4 µM): 0.83
